In patent publication US20170312260A1 (LAUNX BIOMEDICAL CO., LTD., priority 2014, published 2017):
Read-outs that look alike come from different tables or passages of the source.

Key:
Format in all cases: cell-based
[1] = test system: colorectal cancer cell line HCT116-wt; assay: WST-1 cell viability analysis, HCT116-wt; details: 72 hours, read-out: viability (survival rate) of HCT116-wt cells
Protocol: (§1) The cell numbers were counted and reseed as 2×10^6 in cell culture plate/flask. Then, the culture medium were added to a volume of 10 ml, and the cells were cultured for 2-3 days. Then, the cells were suspended for loading into 96-well plates. The number of cells was 3000 and the volume of the culture medium was 100 μl each well.
(§2) Removing the original culture medium from 96-well plate. Then add 100 μl of commercially drug at a concentration of 10 μM per well. After 72 hours, add the diluted WST-1 reagent to the well with 100 μl/well, and the diluted WST-1 reagent was acquired from the dilution of 9:1 medium and WST-1 stock reagent. Finally, the total volume of each well was 200 μl/well. Culture the 96-well plate at 37° C. for 30 to 90 minutes. Detecting and calculate the survival rate of each cancer cells with an ELISA reader at OD450 nm.

cancers cell lines = assay: Inhibition test on all kinds of cancer cell lines (overall statement); details: several / various cancer cell lines, Table 18, FIG. 1
Protocol: as §1, §2
(§3) As a result in the experiments of the present invention.

[2] = test system: pancreatic cancer cell line AsPC-1; assay: WST-1 cell viability analysis, AsPC-1; details: Homo sapiens
Protocol: as §1, §2

[3] = test system: prostate cancer cell line PC-3; assay: WST-1 cell viability analysis, PC-3; details: Homo sapiens
Protocol: as §1, §2

bladder cancer cells = assay: Summary of cell viability, bladder cancer; details: 72 hours, summary over the bladder cancer cell lines, read-out: Inhibitory effect, bladder cancer
Protocol: as §1, §2, §3

[4] = test system: ovarian cancer cell line TOV-21G; assay: WST-1 cell viability analysis, TOV-21G; details: Homo sapiens, TOV21G
Protocol: as §1, §2

[5] = test system: MKN-45 (Gastric Adenocarcinoma); assay: WST-1 cell viability analysis, MKN-45; details: Homo sapiens, MKN-45, 10 μM, 72 hours, read-out: viability (survival rate) of MKN-45 cells
Protocol: as §1, §2

[6] = test system: HeLa (Cervix Adenocarcinoma); assay: WST-1 cell viability analysis, HeLa; details: Homo sapiens
Protocol: as §1, §2

[7] = test system: BCC (basal cell carcinoma); assay: WST-1 cell viability analysis, BCC; details: 72 hours, read-out: viability (survival rate) of BCC cells
[8] = test system: breast cancer cell line MCF7; assay: WST-1 cell viability analysis, MCF7; details: Homo sapiens, MCF7, 10 μM, 72 hours, read-out: viability (survival rate) of MCF7 cells
Protocol: as §1, §2

[9] = test system: pancreatic cancer cell line BxPC-3; assay: WST-1 cell viability analysis, BxPC-3; details: Homo sapiens, BXPC-3, 10 μM, 72 hours, read-out: viability (survival rate) of BxPC-3 cells
Protocol: as §1, §2

[10] = test system: C-33A (Cervical carcinoma); assay: WST-1 cell viability analysis, C-33A; details: Homo sapiens, 72 hours, read-out: viability (survival rate) of C-33A cells
Protocol: as §1, §2

[11] = test system: AGS (Gastric Adenocarcinoma); assay: WST-1 cell viability analysis, AGS; details: Homo sapiens
Protocol: as §1, §2

[12] = test system: A375 (amelanotic melanoma); assay: WST-1 cell viability analysis, A375; details: Homo sapiens, A-375, 10 μM, 72 hours, read-out: viability (survival rate) of A375 cells
[13] = test system: ovarian cancer cell line NIH-OVCAR-3; assay: WST-1 cell viability analysis, NIH-OVCAR-3; details: Homo sapiens, OVCAR-3, 10 μM, 72 hours, read-out: viability (survival rate) of NIH-OVCAR-3 cells
[14] = test system: SAS (Tongue squamous cell carcinoma); assay: WST-1 cell viability analysis, SAS
Protocol: as §1, §2

[15] = test system: A549 (lung adenocarcinoma); assay: WST-1 cell viability analysis, A549; details: Homo sapiens
Protocol: as §1, §2

## CC1=C(C(=O)OC(C)C)C(c2cccc([N+](=O)[O-])c2)C(C(=O)OC2CN(C(c3ccccc3)c3ccccc3)C2)=C(N)N1 (stereo not shown) [Azelnidipine]
[1]; run 0602-30 min
  viability at 10 µM: 70.7%
[1]; run 0605-10 min
  viability at 10 µM: 146%
[1]; run 0607-10 min
  viability at 10 µM: 159%
[1]; run 0609-10 min
  viability at 10 µM: 69.3%
Cancers cell lines
  inhibitory effect on cancer cell lines (in words): significant inhibitory effect
[2]; ASPC1, 10 μM, 72 hours, run 1-4-30 min, read-out: viability (survival rate) of AsPC-1 cells
  viability at 10 µM: 58.6%
[2]; ASPC1, 10 μM, 72 hours, run 1-7-3-30 min, read-out: viability (survival rate) of AsPC-1 cells
  viability at 10 µM: 104%
[2]; ASPC1, 10 μM, 72 hours, run 1-7-4-30 min, read-out: viability (survival rate) of AsPC-1 cells
  viability at 10 µM: 46.1%
[2]; ASPC1, 10 μM, 72 hours, run 1-7-7-30 min, read-out: viability (survival rate) of AsPC-1 cells
  viability at 10 µM: 13.7%
[2]; ASPC1, 72 h, 10 μM, average of 4 tests, read-out: Average viability of AsPC-1 cells
  viability at 10 µM: 55.6%
[3]; PC-3, 10 μM, 72 hours, run PC-3-0524-10 min, read-out: viability (survival rate) of PC-3 cells
  viability at 10 µM: 122%
[3]; PC-3, 10 μM, 72 hours, run PC-3-0526-10 min, read-out: viability (survival rate) of PC-3 cells
  viability at 10 µM: 149%
[3]; PC-3, 10 μM, 72 hours, run PC-3-0529-10 min, read-out: viability (survival rate) of PC-3 cells
  viability at 10 µM: 110%
[3]; PC-3, 10 μM, 72 hours, run PC-3-0531-10 min, read-out: viability (survival rate) of PC-3 cells
  viability at 10 µM: 102%
[3]; PC-3, 72 h, 10 μM, average of 4 tests, read-out: Average viability of PC-3 cells
  viability at 10 µM: 121%
Bladder cancer cells
  viability at 10 µM: 97.3%
[4]; 72 h, average of 4 tests, read-out: average viability of TOV-21G cells
  viability at 10 µM: 27.2%
[4]; 72 hours, run 4-30 min, read-out: viability (survival rate) of TOV-21G cells
  viability at 10 µM: 60.1%
[4]; 72 hours, run 7-3-30 min, read-out: viability (survival rate) of TOV-21G cells
  viability at 10 µM: 15.6%
[4]; 72 hours, run 7-4-30 min, read-out: viability (survival rate) of TOV-21G cells
  viability at 10 µM: 13.3%
[4]; 72 hours, run 7-7-30 min, read-out: viability (survival rate) of TOV-21G cells
  viability at 10 µM: 19.6%
[5]; run 0510-10 min
  viability at 10 µM: 174%
[5]; run 0512-10 min
  viability at 10 µM: 184%
[5]; run 0515-10 min
  viability at 10 µM: 68.5%
[5]; run 0517-10 min
  viability at 10 µM: 130%
[6]; 72 h, average of 4 tests, read-out: Average viability of HeLa cells
  viability at 10 µM: 87%
[6]; 72 hours, run 0524-10 min, read-out: viability (survival rate) of HeLa cells
  viability at 10 µM: 70.4%
[6]; 72 hours, run 0526-10 min, read-out: viability (survival rate) of HeLa cells
  viability at 10 µM: 93.7%
[6]; 72 hours, run 0529-10 min, read-out: viability (survival rate) of HeLa cells
  viability at 10 µM: 81.4%
[6]; 72 hours, run 0531-10 min, read-out: viability (survival rate) of HeLa cells
  viability at 10 µM: 103%
[7]; run 0602-30 min
  viability at 10 µM: 77.7%
[7]; run 0605-10 min
  viability at 10 µM: 127%
[7]; run 0607-10 min
  viability at 10 µM: 95.7%
[8]; run 0612-10 min
  viability at 10 µM: 48.6%
[8]; run 0614-10 min
  viability at 10 µM: 46.6%
[8]; run 0616-10 min
  viability at 10 µM: 68.2%
[8]; run 0619-10 min
  viability at 10 µM: 79.9%
[9]; run 3-4-30 min
  viability at 10 µM: 77.5%
[9]; run 3-7-3-30 min
  viability at 10 µM: 79.9%
[9]; run 3-7-4-30 min
  viability at 10 µM: 51%
[9]; run 3-7-7-30 min
  viability at 10 µM: 50%
[10]; run 0524-10 min
  viability at 10 µM: 142%
[10]; run 0526-10 min
  viability at 10 µM: 111%
[10]; run 0529-10 min
  viability at 10 µM: 123%
[10]; run 0531-10 min
  viability at 10 µM: 117%
[11]; 72 h, average of 4 tests, read-out: average viability of AGS cells
  viability at 10 µM: 90.2%
[11]; 72 hours, run 0510-10 min, read-out: viability (survival rate) of AGS cells
  viability at 10 µM: 120%
[11]; 72 hours, run 0512-10 min, read-out: viability (survival rate) of AGS cells
  viability at 10 µM: 124%
[11]; 72 hours, run 0515-10 min, read-out: viability (survival rate) of AGS cells
  viability at 10 µM: 42.1%
[11]; 72 hours, run 0517-10 min, read-out: viability (survival rate) of AGS cells
  viability at 10 µM: 74.3%
[12]; run 0602-30 min
  viability at 10 µM: 124%
[12]; run 0607-10 min
  viability at 10 µM: 76%
[12]; run 0609-10 min
  viability at 10 µM: 105%
[13]; run 7-3-30 min
  viability at 10 µM: 106%
[13]; run 7-4-30 min (fourth column)
  viability at 10 µM: 104%
[13]; run 7-4-30 min (second column)
  viability at 10 µM: 99.1%
[14]; 72 h, average of 4 tests, read-out: Average viability of SAS cells
  viability at 10 µM: 76.8%
[14]; 72 h, summary (SAS), read-out: Inhibitory effect, tongue cancer
  viability at 10 µM: 76.8%
[14]; 72 hours, run 6-26-10 min, read-out: viability (survival rate) of SAS cells
  viability at 10 µM: 69.9%
[14]; 72 hours, run 6-28-10 min, read-out: viability (survival rate) of SAS cells
  viability at 10 µM: 66%
[14]; 72 hours, run 6-30-10 min, read-out: viability (survival rate) of SAS cells
  viability at 10 µM: 66.7%
[14]; 72 hours, run 7-3-10 min, read-out: viability (survival rate) of SAS cells
  viability at 10 µM: 105%
[15]; A549, 10 μM, 72 hours, run 0524-10 min, read-out: viability (survival rate) of A549 cells
  viability at 10 µM: 81.4%
[15]; A549, 10 μM, 72 hours, run 0526-10 min, read-out: viability (survival rate) of A549 cells
  viability at 10 µM: 119%
[15]; A549, 10 μM, 72 hours, run 0529-10 min, read-out: viability (survival rate) of A549 cells
  viability at 10 µM: 69.7%
[15]; A549, 10 μM, 72 hours, run 0531-10 min, read-out: viability (survival rate) of A549 cells
  viability at 10 µM: 80.2%
[15]; A549, 72 h, 10 μM, average of 4 tests, read-out: Average viability of A549 cells
  viability at 10 µM: 87.5%
